Publication PMC6028563, “Probing Substituents in the 1- and 3-Position: Tetrahydropyrazino-Annelated Water-Soluble Xanthine Derivatives as Multi-Target Drugs With Potent Adenosine Receptor Antagonistic Activity” (Frontiers in Chemistry, 2018)

Key:
human A3 AR = molecular target: T1, human A3 AR (Homo sapiens, UniProt P0DMS8); experiment: Radioligand binding assay at human A3 AR vs. [^3H]PSB-11; details: for Ki: CHO cell membranes, n = 2 (n = 3 where marked a), read-out: Ki ± SEM, A3 vs. [^3H]PSB-11; for inhibition at 10 µM: at 10,000 nM, read-out: % inhibition of radioligand binding at indicated concentration, A3 vs. [^3H]PSB-11
T1 construct: expressed in transfected cells; host or cells: CHO cells
T1 sequence (P0DMS8 1-318): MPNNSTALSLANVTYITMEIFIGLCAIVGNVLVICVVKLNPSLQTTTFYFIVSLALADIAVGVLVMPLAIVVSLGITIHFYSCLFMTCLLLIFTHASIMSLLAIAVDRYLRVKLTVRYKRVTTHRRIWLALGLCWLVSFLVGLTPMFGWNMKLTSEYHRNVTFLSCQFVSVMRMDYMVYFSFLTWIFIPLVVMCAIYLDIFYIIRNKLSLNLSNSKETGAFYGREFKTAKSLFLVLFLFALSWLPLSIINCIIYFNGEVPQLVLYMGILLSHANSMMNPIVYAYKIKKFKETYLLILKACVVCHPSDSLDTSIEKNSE
Outline: (§1)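 Affinity values derive from radioligand displacement on membrane preparations: native rat tissue (cortex for A1, striatum for A2A) or CHO cells recombinantly expressing human A1, A2A, A2B or A3 ARs.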

rat A1 AR = molecular target: T2, rat A1 AR (Rattus norvegicus, UniProt P25099); experiment: Radioligand binding assay at rat A1 AR (rat brain cortex) vs. [^3H]CCPA; details: rat (r); rat brain cortex; n = 3
T2 construct: A1 ARs of rat brain cortical membrane; from tissue; host or cells: rat brain cortex membranes
T2 sequence (P25099 1-326): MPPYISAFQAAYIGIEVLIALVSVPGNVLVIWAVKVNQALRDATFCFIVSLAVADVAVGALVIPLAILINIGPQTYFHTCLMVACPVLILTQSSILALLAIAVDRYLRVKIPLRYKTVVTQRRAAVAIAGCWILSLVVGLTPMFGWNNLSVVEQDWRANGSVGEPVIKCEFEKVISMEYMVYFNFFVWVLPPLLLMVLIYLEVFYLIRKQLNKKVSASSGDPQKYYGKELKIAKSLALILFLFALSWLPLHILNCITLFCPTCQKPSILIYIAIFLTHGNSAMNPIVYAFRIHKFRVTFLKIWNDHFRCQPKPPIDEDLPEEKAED
Outline: as §1

human A2B AR = molecular target: T3, human A2B AR (Homo sapiens, UniProt P29275); experiment: Radioligand binding assay at human A2B AR vs. [^3H]PSB-603; details: for Ki: CHO cell membranes, n = 2 (n = 3 where marked a), read-out: Ki ± SEM, A2B vs. [^3H]PSB-603; for inhibition at 1 µM: at 1,000 nM
T3 construct: expressed in transfected cells; host or cells: CHO cells
T3 sequence (P29275 1-332): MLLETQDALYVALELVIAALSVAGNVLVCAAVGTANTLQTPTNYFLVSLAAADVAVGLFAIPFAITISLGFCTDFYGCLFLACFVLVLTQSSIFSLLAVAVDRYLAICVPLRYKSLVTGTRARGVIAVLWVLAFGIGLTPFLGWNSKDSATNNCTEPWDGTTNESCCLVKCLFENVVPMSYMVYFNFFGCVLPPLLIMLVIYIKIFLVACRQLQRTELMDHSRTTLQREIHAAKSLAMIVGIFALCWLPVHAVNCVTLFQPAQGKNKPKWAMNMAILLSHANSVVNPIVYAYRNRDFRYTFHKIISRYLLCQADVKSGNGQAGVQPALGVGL
Outline: as §1

recombinant human MAO-B = molecular target: T4, recombinant human MAO-B (Homo sapiens, UniProt P27338); experiment: Monoamine oxidase assay (Amplex Red), MAO-B; type: biochemical; details: for inhibition at 10 µM: at 10,000 nM (10 μM), read-out: % inhibition at indicated concentration, Human MAO-B; for IC50: n = 3, read-out: IC50 ± SEM, Human MAO-B
T4 construct: purchased Sigma-Aldrich M7441; host or cells: baculovirus-infected insect cells
T4 sequence (P27338 1-520): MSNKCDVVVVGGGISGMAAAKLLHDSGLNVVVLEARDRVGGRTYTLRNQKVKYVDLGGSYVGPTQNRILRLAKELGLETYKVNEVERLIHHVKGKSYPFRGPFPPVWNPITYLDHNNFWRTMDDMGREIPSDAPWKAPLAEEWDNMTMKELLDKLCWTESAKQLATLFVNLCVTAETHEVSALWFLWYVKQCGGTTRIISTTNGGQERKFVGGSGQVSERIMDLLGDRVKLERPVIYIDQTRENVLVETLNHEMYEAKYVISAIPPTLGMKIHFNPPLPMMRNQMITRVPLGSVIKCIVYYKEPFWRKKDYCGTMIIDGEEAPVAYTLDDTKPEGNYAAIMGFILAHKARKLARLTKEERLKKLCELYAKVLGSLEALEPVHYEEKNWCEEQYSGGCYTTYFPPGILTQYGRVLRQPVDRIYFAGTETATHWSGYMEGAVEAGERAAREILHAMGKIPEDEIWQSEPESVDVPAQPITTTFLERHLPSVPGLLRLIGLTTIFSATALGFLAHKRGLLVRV
Outline: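 Inhibition was measured with an Amplex Red monoamine oxidase assay, using human MAO-A and MAO-B produced recombinantly in baculovirus-infected insect cells. For rat MAO-B, liver mitochondria-enriched fractions from male Sprague Dawley rats served as enzyme source.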

human A1 AR = molecular target: T5, human A1 AR (Homo sapiens, UniProt P30542); experiment: Radioligand binding assay at human A1 AR vs. [^3H]CCPA; details: for Ki: human (h), CHO cell membranes, n = 3; for selectivity for the human A1 vs. the human A2A AR: ratio of Ki values, human receptors
T5 construct: expressed in transfected cells; host or cells: CHO cells
T5 sequence (P30542 1-326): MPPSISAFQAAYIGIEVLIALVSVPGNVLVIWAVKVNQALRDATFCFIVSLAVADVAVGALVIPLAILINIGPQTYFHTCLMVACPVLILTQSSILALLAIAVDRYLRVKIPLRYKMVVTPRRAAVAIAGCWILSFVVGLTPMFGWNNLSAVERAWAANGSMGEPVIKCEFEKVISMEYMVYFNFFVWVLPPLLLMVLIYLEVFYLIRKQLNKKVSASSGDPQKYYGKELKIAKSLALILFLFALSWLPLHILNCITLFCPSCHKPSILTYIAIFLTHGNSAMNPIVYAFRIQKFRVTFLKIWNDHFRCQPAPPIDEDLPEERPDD
Outline: as §1

[1] = read-out: % inhibition of radioligand binding at indicated concentration, A2B vs. [^3H]PSB-603

Row | SMILES | Ki (human A3 AR) | inhibition at 10 µM (human A3 AR) | Ki (rat A1 AR) | Ki (human A2B AR) | inhibition at 1 µM (human A2B AR; [1]) | inhibition at 10 µM (recombinant human MAO-B) | IC50 (recombinant human MAO-B) | Ki (human A1 AR) | selectivity for the human A1 vs. the human A2A AR (human A1 AR) | inhibition at 0.1 µM (human A2B AR; at 100 nM, read-out: % inhibition of radioligand binding at indicated concentration, A2B vs. [^3H]PSB-603)
1 | CCn1c(=O)c2c(nc3n2CCN(Cc2ccccc2Br)C3)n(C)c1=O [Compound 14a, 8-(2-bromobenzyl)-3-ethyl-1-methyl-6,7,8,9-tetrahydropyrazino[2,1-f]purine-2,4(1H,3H)-dione] | > 10000 nM | 36% | 123 ± 34 nM | > 1000 nM | 18% | 37% | > 10000 nM | 41.7 ± 8.3 nM | > 10 fold | 
2 | CCn1c(=O)c2c(nc3n2CCN(Cc2cccc(C(F)(F)F)c2)C3)n(C)c1=O [Compound 14e, 3-ethyl-1-methyl-8-(3-(trifluoromethyl)benzyl)-6,7,8,9-tetrahydropyrazino[2,1-f]purine-2,4(1H,3H)-dione] | > 10000 nM | 38% | 49.1 ± 6.2 nM | > 100 nM |  | > 50% | < 10000 nM | 156 ± 49 nM |  | 2%
3 | CCn1c(=O)c2c(nc3n2CCN(Cc2ccccc2C(F)(F)F)C3)n(C)c1=O [Compound 14d, 3-ethyl-1-methyl-8-(2-(trifluoromethyl)benzyl)-6,7,8,9-tetrahydropyrazino[2,1-f]purine-2,4(1H,3H)-dione] | 8760 nM |  | 114 ± 15 nM | > 1000 nM | 2% | 49% | ≥ 10000 nM | 244 ± 74 nM |  | 
4 | CCn1c(=O)c2c(nc3n2CCN(Cc2cc(C(F)(F)F)ccc2Cl)C3)n(C)c1=O [Compound 14m, 8-(2-chloro-5-(trifluoromethyl)benzyl)-3-ethyl-1-methyl-6,7,8,9-tetrahydropyrazino[2,1-f]purine-2,4(1H,3H)-dione] | > 10000 nM | 35% | 76.2 ± 9 nM | > 1000 nM | 3% |  | 1430 nM | 55.9 ± 8.3 nM | 16 fold | 
5 | CCn1c(=O)c2c(nc3n2CCN(Cc2ccc(Br)cc2)C3)n(C)c1=O [Compound 14c, 8-(4-bromobenzyl)-3-ethyl-1-methyl-6,7,8,9-tetrahydropyrazino[2,1-f]purine-2,4(1H,3H)-dione] | 9390 nM |  | 156 ± 21 nM | > 1000 nM | 1% |  | 1630 nM | 1350 nM |  | 
6 | CCn1c(=O)c2c(nc3n2CCN(Cc2cccc(C(F)(F)F)c2F)C3)n(C)c1=O [Compound 14l, 3-ethyl-8-(2-fluoro-3-(trifluoromethyl)benzyl)-1-methyl-6,7,8,9-tetrahydropyrazino[2,1-f]purine-2,4(1H,3H)-dione] | > 10000 nM | 29% | 236 ± 57 nM | > 1000 nM | 8% | 65% | < 10000 nM | 495 ± 80 nM |  | 

Continued, values first:

Row | Ki (human A3 AR) | inhibition at 10 µM (human A3 AR) | Ki (rat A1 AR) | Ki (human A2B AR) | inhibition at 1 µM (human A2B AR; [1]) | inhibition at 10 µM (recombinant human MAO-B) | IC50 (recombinant human MAO-B) | Ki (human A1 AR) | selectivity for the human A1 vs. the human A2A AR (human A1 AR) | inhibition at 0.1 µM (human A2B AR; at 100 nM, read-out: % inhibition of radioligand binding at indicated concentration, A2B vs. [^3H]PSB-603) | SMILES
7 | > 10000 nM | 23% | 49.3 ± 8 nM | > 1000 nM | 5% |  | 136 ± 5 nM | 143 ± 16 nM |  |  | CCn1c(=O)n(C)c(=O)c2c1nc1n2CCN(Cc2cc(Cl)cc(Cl)c2)C1 [Compound 16b, 8-(3,5-dichlorobenzyl)-1-ethyl-3-methyl-6,7,8,9-tetrahydropyrazino[2,1-f]purine-2,4(1H,3H)-dione]
8 | > 10000 nM | 19% | 236 ± 23 nM | > 1000 nM | 5% |  | 106 ± 10 nM | 396 ± 154 nM |  |  | CCn1c(=O)n(C)c(=O)c2c1nc1n2CCN(Cc2ccc(Cl)c(Cl)c2)C1 [Compound 16a, 8-(3,4-dichlorobenzyl)-1-ethyl-3-methyl-6,7,8,9-tetrahydropyrazino[2,1-f]purine-2,4(1H,3H)-dione]
9 | > 10000 nM | 25% | 153 ± 10 nM | > 1000 nM | 3% | 59% | < 10000 nM | 110 ± 4 nM |  |  | C#CCn1c(=O)c2c(nc3n2CCN(Cc2cc(C(F)(F)F)ccc2Cl)C3)n(C)c1=O [Compound 19b, 8-(2-chloro-5-(trifluoromethyl)benzyl)-1-methyl-3-propargyl-6,7,8,9-tetrahydropyrazino[2,1-f]purine-2,4(1H,3H)-dione]
10 | 13300 nM |  | 33.5 ± 5.6 nM | > 1000 nM | 24% |  | 1310 nM | 75.4 ± 16.1 nM |  |  | CCn1c(=O)c2c(nc3n2CCN(Cc2cc(Br)ccc2F)C3)n(CC)c1=O [Compound 15l, 8-(5-bromo-2-fluorobenzyl)-1,3-diethyl-6,7,8,9-tetrahydropyrazino[2,1-f]purine-2,4(1H,3H)-dione]
11 | > 10000 nM | 25% | 124 ± 21 nM | > 1000 nM | 27% | 58% | < 10000 nM | 39.4 ± 7.4 nM |  |  | CCn1c(=O)c2c(nc3n2CCN(Cc2cc(C(F)(F)F)ccc2F)C3)n(CC)c1=O [Compound 15j, 1,3-diethyl-8-(2-fluoro-5-(trifluoromethyl)benzyl)-6,7,8,9-tetrahydropyrazino[2,1-f]purine-2,4(1H,3H)-dione]
12 | 7190 nM |  | 270 ± 60 nM | > 1000 nM | 34% | 63% | < 10000 nM | 362 ± 98 nM |  |  | CCn1c(=O)c2c(nc3n2CCN(Cc2ccc(F)c(Br)c2)C3)n(CC)c1=O [Compound 15k, 8-(3-bromo-4-fluorobenzyl)-1,3-diethyl-6,7,8,9-tetrahydropyrazino[2,1-f]purine-2,4(1H,3H)-dione]
13 | 7160 nM |  | 328 ± 70 nM | > 1000 nM | 38% | > 50% | ≤ 10000 nM | 946 ± 166 nM |  |  | C#CCn1c(=O)c2c(nc3n2CCN(c2cccc(OC)c2)C3)n(CC)c1=O [Compound 20c, 1-ethyl-8-(3-methoxyphenyl)-3-propargyl-6,7,8,9-tetrahydropyrazino[2,1-f]purine-2,4(1H,3H)-dione]
